{
  "source": "paper doi:10.1101/2025.07.09.663793",
  "about": "“Activating and inhibiting nucleotide signals coordinate bacterial anti-phage defense” (bioRxiv, 2025)",
  "key": {"CloA (SeCloA) [1]": {"biological_target": "T1, CloA (SeCloA)", "T1 construct": "full-length CloA from S. enterica SA20044414, octamer", "test": "[…] Å cryo-EM of CloA co-expressed with CloB; LC-MS of released ligand; dGTPase inhibition (malachite green)", "assay_type": "biochemical, Salmonella enterica"}, "CloA (SeCloA) [2]": {"biological_target": "T2, CloA (SeCloA) (Salmonella enterica, UniProt A0A5H6DAK1, H126A/E129A)", "T2 construct": "gene dgt; CloA^HEAA, octamer", "test": "[…] Å cryo-EM structure of CloA–dGTP–dTTP", "assay_type": "binding"}, "CloA (SeCloA) [3]": {"biological_target": "T3, CloA (SeCloA)", "T3 construct": "wild-type CloA", "test": "activation of purified CloA dGTPase, phosphate release and LC-MS", "assay_type": "biochemical, Salmonella enterica"}, "[4]": {"biological_target": "Shewanella putrefaciens CN-32 dGTPase (Shewanella putrefaciens CN-32)", "test": "crystal structure; SpdGTPase at 10 mg/mL in 20 mM HEPES-KOH pH 7.5, 100 mM KCl; hanging drop, 18°C; reservoir 0.2 M magnesium chloride, 0.1 M HEPES-NaOH pH 7.5, 30% PEG-400"}, "CloA (SeCloA) [5]": {"biological_target": "T3, CloA (SeCloA)", "test": "inhibition of purified CloA dGTPase, phosphate release (malachite green)", "assay_type": "biochemical, Salmonella enterica"}, "[6]": {"biological_target": "Salmonella enterica SA20044414 Clover protein A (CloA), wild type (Salmonella enterica SA20044414)", "test": "cryo-EM structure; apo Salmonella CloA, 1 mg/mL, vitrified at 4°C; C4 symmetry"}},
  "data": [
    {"molecule": "Cc1cn([C@H]2C[C@H](OP(=O)(O)OC[C@H]3O[C@@H](n4cc(C)c(=O)[nH]c4=O)C[C@@H]3O)[C@@H](COP(=O)(O)OP(=O)(O)OP(=O)(O)O)O2)c(=O)[nH]c1=O", "note": "[p3diT, 5′-triphosphothymidyl-3′5′-thymidine]", "values": [
      {"measurement": "IC50", "setting": "CloA (SeCloA) [1]", "value": "~7.6", "unit": "µM"}
    ]},
    {"molecule": "Cc1cn([C@H]2C[C@H](O)[C@@H](COP(=O)(O)OP(=O)(O)OP(=O)(O)O)O2)c(=O)[nH]c1=O", "note": "[dTTP]", "values": [
      {"measurement": "2.6 Å cryo-EM structure of CloA-dGTP-dTTP", "setting": "CloA (SeCloA) [2]", "value": "In the CloA–dGTP–dTTP active state structure, dTTP is bound at the CloAAB interface in an adjacent pocket"},
      {"measurement": "EC50", "setting": "CloA (SeCloA) [3]", "value": "~15", "unit": "µM"}
    ]},
    {"molecule": "Shewanella putrefaciens CN-32 dGTPase (enzyme)", "values": [
      {"measurement": "stoichiometry N", "setting": "[4]", "value": 6}
    ]},
    {"molecule": "Cc1cn([C@H]2C[C@H](OP(=O)(O)OC[C@H]3O[C@@H](n4cc(C)c(=O)[nH]c4=O)C[C@@H]3O)[C@@H](COP(=O)(O)OP(=O)(O)O)O2)c(=O)[nH]c1=O", "note": "[p2diT]", "values": [
      {"measurement": "IC50", "setting": "CloA (SeCloA) [5]", "value": "~20.9", "unit": "µM"}
    ]},
    {"molecule": "Salmonella enterica SA20044414 Clover protein A (CloA), wild type (enzyme)", "values": [
      {"measurement": "stoichiometry N", "setting": "[6]", "value": 8}
    ]}
  ]
}
